Biological target: human P2X3 receptor (Homo sapiens (Human), UniProt P56373)
Assay: P2X3 receptor inhibition, ATP-evoked Fluo-3 calcium fluorescence (FDSS 3000)
Assay type: cell-based
Settings: C6BU-1 cell transfected with human P2X3 receptor gene; ATP-evoked Fluo-3 fluorescence
Method in brief: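 C6BU-1 cells stably transfected with human P2X3, loaded with 4 μM Fluo-3-AM for 1 h at 37 °C in HEPES buffer pH 7.5 with probenecid. Compound added 5 min before 40 nM ATP solution; fluorescence followed 3 min. IC50 from ratio of peak post-ATP to baseline fluorescence.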

human P2X3 receptor, sequence (P56373 whole entry): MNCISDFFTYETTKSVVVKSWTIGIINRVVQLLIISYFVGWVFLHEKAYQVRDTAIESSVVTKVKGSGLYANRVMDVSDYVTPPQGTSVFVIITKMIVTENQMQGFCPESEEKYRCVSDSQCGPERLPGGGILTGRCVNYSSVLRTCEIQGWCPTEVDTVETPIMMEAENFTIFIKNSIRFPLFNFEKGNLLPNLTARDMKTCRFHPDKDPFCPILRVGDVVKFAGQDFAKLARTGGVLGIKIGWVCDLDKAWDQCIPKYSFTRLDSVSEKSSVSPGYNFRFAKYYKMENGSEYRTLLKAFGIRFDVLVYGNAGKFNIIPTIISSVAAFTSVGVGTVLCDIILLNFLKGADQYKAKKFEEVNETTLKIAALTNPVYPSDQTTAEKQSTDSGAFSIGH

| IC50 | Structure (SMILES) |
| --- | --- |
| 554 nM | COCCOc1ncccc1C1C(C(=O)C2CCCC2)=C(O)C(=O)N1c1ccc(-c2ccon2)cc1 (stereo not drawn) [Compound I-521] |
| 351 nM | COCCOc1ncccc1C1C(C(=O)C2CCCC2)=C(O)C(=O)N1c1ccc(-c2noc(C)n2)cc1 (stereo not drawn) [Compound I-523] |
| 696 nM | Cc1nc(-c2ccc(N3C(=O)C(O)=C(C(=O)C(C)C)C3c3cccnc3N3CCOCC3)cc2)no1 (stereo not drawn) [Compound I-524] |
| 18 nM | CC(C)C(=O)C1=C(O)C(=O)N(c2ccc(-c3ccsc3)cc2)C1c1cccnc1N1CCOCC1 (stereo not drawn) [Compound I-525] |
| 219 nM | Cc1cc(-c2ccc(N3C(=O)C(O)=C(C(=O)C(C)C)C3c3ccccc3CC(=O)N3CCCC3)cc2)cs1 (stereo not drawn) [Compound I-526] |
| 39 nM | COCc1ccccc1C1C(C(=O)C(C)C)=C(O)C(=O)N1c1ccc(C2=CCCC2)cc1 (stereo not drawn) [Compound I-527] |
| 70 nM | COCc1ccccc1C1C(C(=O)C(C)C)=C(O)C(=O)N1c1ccc(C2CCCC2)cc1 (stereo not drawn) [Compound I-528] |
| 237 nM | CCNC(=O)c1ncccc1C1C(C(=O)CC(C)C)=C(O)C(=O)N1c1ccc(-c2ccc(C)s2)cc1 (stereo not drawn) [Compound I-530] |
| 286 nM | COc1ccccc1C1C(C(=O)C(C)C)=C(O)C(=O)N1c1ccc(-c2csnn2)cc1 (stereo not drawn) [Compound I-531] |
| 204 nM | COCCOc1ccccc1C1C(C(=O)C(C)C)=C(O)C(=O)N1c1ccc(-c2csnn2)cc1 (stereo not drawn) [Compound I-532] |
| 33 nM | CC(C)Oc1ccccc1C1C(C(=O)C(C)C)=C(O)C(=O)N1c1ccc(-c2csnn2)cc1 (stereo not drawn) [Compound I-533] |
| 49 nM | CNC(=O)CCc1ccccc1C1C(C(=O)C(C)C)=C(O)C(=O)N1c1ccc(-c2ccc(C)o2)cc1 (stereo not drawn) [Compound I-535] |
| 32 nM | Cc1ccc(-c2ccc(N3C(=O)C(O)=C(C(=O)C(C)C)C3c3ccccc3CCC(N)=O)cc2)o1 (stereo not drawn) [Compound I-536] |
| 83 nM | Cc1ccc(-c2ccc(N3C(=O)C(O)=C(C(=O)C(C)C)C3c3ccccc3CCC(=O)N(C)C)cc2)o1 (stereo not drawn) [Compound I-537] |
| 119 nM | Cc1ccc(-c2ccc(N3C(=O)C(O)=C(C(=O)C(C)C)C3c3ccccc3CCC(=O)NC(C)C)cc2)o1 (stereo not drawn) [Compound I-538] |
| 62 nM | Cc1nc(-c2ccc(N3C(=O)C(O)=C(C(=O)C(C)C)C3c3ccccc3COC(C)C)cc2)no1 (stereo not drawn) [Compound I-539] |
| 496 nM | CC(C)OCc1ccccc1C1C(C(=O)C(C)C)=C(O)C(=O)N1c1ccc(-c2ccon2)cc1 (stereo not drawn) [Compound I-540] |
| 10 nM | CC(C)OCc1ccccc1C1C(C(=O)C(C)C)=C(O)C(=O)N1c1ccc(-c2ccsc2)cc1 (stereo not drawn) [Compound I-541] |
| 58 nM | CCOCOc1ccccc1C1C(C(=O)C(C)C)=C(O)C(=O)N1c1ccc(-c2noc(C)n2)cc1 (stereo not drawn) [Compound I-542] |
| 240 nM | CCOCOc1ccccc1C1C(C(=O)C(C)C)=C(O)C(=O)N1c1ccc(-c2ccon2)cc1 (stereo not drawn) [Compound I-543] |
| 8 nM | CCOCOc1ccccc1C1C(C(=O)C(C)C)=C(O)C(=O)N1c1ccc(-c2ccsc2)cc1 (stereo not drawn) [Compound I-544] |
| 142 nM | CCOCOc1ccccc1C1C(C(=O)C(C)C)=C(O)C(=O)N1c1ccc(-c2nc(C)no2)cc1 (stereo not drawn) [Compound I-545] |
| 395 nM | Cc1cc(-c2ccc(N3C(=O)C(O)=C(C(=O)C(C)C)C3c3ccccc3C(=O)N3CCOCC3)cc2)cs1 (stereo not drawn) [Compound I-546] |

| IC50 | Structure (SMILES) |
| --- | --- |
| 217 nM | COCCN(C)C(=O)c1ccccc1C1C(C(=O)C(C)C)=C(O)C(=O)N1c1ccc(-c2csc(C)c2)cc1 (stereo not drawn) [Compound I-547] |
| 77 nM | Cc1ccc(-c2ccc(N3C(=O)C(O)=C(C(=O)C(C)C)C3c3ccccc3S(C)(=O)=O)cc2)o1 (stereo not drawn) [Compound I-548] |
| 213 nM | Cc1ccc(-c2ccc(N3C(=O)C(O)=C(C(=O)C(C)C)C3c3ccccc3C(=O)N3CCOCC3)cc2)o1 (stereo not drawn) [Compound I-549] |
| 254 nM | COCCOc1ncccc1C1C(C(=O)CC(C)C)=C(O)C(=O)N1c1ccc(SC)cc1 (stereo not drawn) [Compound I-550] |
| 5 nM | CC(C)C(=O)C1=C(O)C(=O)N(c2ccc(-c3ccsc3)cc2)C1c1ccccc1OCC1OCCO1 (stereo not drawn) [Compound I-551] |
| 186 nM | Cc1noc(-c2ccc(N3C(=O)C(O)=C(C(=O)C(C)C)C3c3ccccc3COC(C)C)cc2)n1 (stereo not drawn) [Compound I-552] |
| 337 nM | COc1ccccc1C1C(C(=O)c2cc[nH]c2)=C(O)C(=O)N1c1ccc(-c2csc(C)c2)cc1 (stereo not drawn) [Compound I-553] |
| 579 nM | Cc1nc(-c2ccc(N3C(=O)C(O)=C(C(=O)c4cc[nH]c4)C3C3CCCCC3)cc2)no1 (stereo not drawn) [Compound I-555] |
| 32 nM | COC(=O)C(C)(C)CC(=O)C1=C(O)C(=O)N(c2ccc(-c3ccsc3)cc2)C1c1ccccc1OC (stereo not drawn) [Compound I-556] |
| 444 nM | COc1ccccc1C1C(C(=O)CC(C)(C)C(=O)O)=C(O)C(=O)N1c1ccc(-c2ccsc2)cc1 (stereo not drawn) [Compound I-557] |
| 8 nM | CSc1ccccc1C1C(C(=O)C(C)C)=C(O)C(=O)N1c1ccc(-c2ccsc2)cc1 (stereo not drawn) [Compound I-558] |
| 40 nM | CSc1ccccc1C1C(C(=O)C(C)C)=C(O)C(=O)N1c1ccc(-c2csc(C)c2)cc1 (stereo not drawn) [Compound I-559] |
| 275 nM | COc1ccc(S(=O)(=O)C2=C(O)C(=O)N(c3ccc(-c4noc(C)n4)cc3)C2C2CCCCC2)cc1 (stereo not drawn) [Compound I-560] |
| 42 nM | COCCOc1ccccc1C1C(S(=O)(=O)C(C)C)=C(O)C(=O)N1c1ccc(-c2ccsc2)cc1 (stereo not drawn) [Compound I-563] |
| 18 nM | CC(C)C(=O)C1=C(O)C(=O)N(c2ccc(-c3ccsc3)cc2)C1c1cccnc1OCCCO (stereo not drawn) [Compound I-564] |
| 13 nM | COCCCOc1ncccc1C1C(C(=O)C(C)C)=C(O)C(=O)N1c1ccc(-c2ccsc2)cc1 (stereo not drawn) [Compound I-565] |
| 61 nM | CC(C)C(=O)C1=C(O)C(=O)N(c2ccc(-c3ccoc3)cc2)C1c1cccnc1OCCCO (stereo not drawn) [Compound I-566] |
| 57 nM | COCCCOc1ncccc1C1C(C(=O)C(C)C)=C(O)C(=O)N1c1ccc(-c2ccoc2)cc1 (stereo not drawn) [Compound I-567] |
| 66 nM | Cc1ccc(-c2ccc(N3C(=O)C(O)=C(C(=O)C(C)C)C3c3cccnc3OCCCO)cc2)s1 (stereo not drawn) [Compound I-568] |
| 35 nM | COCCCOc1ncccc1C1C(C(=O)C(C)C)=C(O)C(=O)N1c1ccc(-c2ccc(C)s2)cc1 (stereo not drawn) [Compound I-569] |
| 70 nM | Cc1cc(-c2ccc(N3C(=O)C(O)=C(C(=O)C(C)C)C3c3cccnc3OCCCO)cc2)cs1 (stereo not drawn) [Compound I-570] |
| 60 nM | COCCCOc1ncccc1C1C(C(=O)C(C)C)=C(O)C(=O)N1c1ccc(-c2csc(C)c2)cc1 (stereo not drawn) [Compound I-571] |
| 171 nM | Cc1ccc(-c2ccc(N3C(=O)C(O)=C(C(=O)CC(C)C)C3c3cccnc3C(N)=O)cc2)s1 (stereo not drawn) [Compound I-572] |

| IC50 | Structure (SMILES) |
| --- | --- |
| 123 nM | CNC(=O)c1ncccc1C1C(C(=O)CC(C)C)=C(O)C(=O)N1c1ccc(-c2ccc(C)s2)cc1 (stereo not drawn) [Compound I-573] |
| 280 nM | Cc1ccc(-c2ccc(N3C(=O)C(O)=C(C(=O)CC(C)C)C3c3cccnc3C(=O)N(C)C)cc2)s1 (stereo not drawn) [Compound I-574] |
| 252 nM | CCN(C)C(=O)c1ncccc1C1C(C(=O)CC(C)C)=C(O)C(=O)N1c1ccc(-c2ccc(C)s2)cc1 (stereo not drawn) [Compound I-575] |
| 237 nM | Cc1ccc(-c2ccc(N3C(=O)C(O)=C(C(=O)CC(C)C)C3c3cccnc3C(=O)NN(C)C)cc2)s1 (stereo not drawn) [Compound I-576] |
| 47 nM | Cc1ccc(-c2ccc(N3C(=O)C(O)=C(C(=O)CC(C)C)C3c3cccnc3C(=O)NCC#N)cc2)s1 (stereo not drawn) [Compound I-577] |
| 386 nM | Cc1ccc(-c2ccc(N3C(=O)C(O)=C(C(=O)CC(C)C)C3c3cccnc3C(=O)NC(C)C)cc2)s1 (stereo not drawn) [Compound I-578] |
| 429 nM | Cc1ccc(-c2ccc(N3C(=O)C(O)=C(C(=O)CC(C)C)C3c3cccnc3C(=O)N3CCCC3)cc2)s1 (stereo not drawn) [Compound I-579] |
| 466 nM | COCCNC(=O)c1ncccc1C1C(C(=O)CC(C)C)=C(O)C(=O)N1c1ccc(-c2ccc(C)s2)cc1 (stereo not drawn) [Compound I-581] |
| 359 nM | COCCN(C)C(=O)c1ncccc1C1C(C(=O)CC(C)C)=C(O)C(=O)N1c1ccc(-c2ccc(C)s2)cc1 (stereo not drawn) [Compound I-582] |
| 10 nM | Cc1ccc(-c2ccc(N3C(=O)C(O)=C(C(=O)CC(C)C)C3c3cccnc3C(=O)NCCN(C)C)cc2)s1 (stereo not drawn) [Compound I-583] |
| 167 nM | Cc1cc(-c2ccc(N3C(=O)C(O)=C(C(=O)C(C)C)C3c3ccccc3C(=O)N(C)CCO)cc2)cs1 (stereo not drawn) [Compound I-584] |
| 157 nM | Cc1ccc(-c2ccc(N3C(=O)C(O)=C(C(=O)C(C)C)C3c3ccccc3C(=O)N(C)CCO)cc2)o1 (stereo not drawn) [Compound I-585] |
| 254 nM | COCCN(C)C(=O)c1ccccc1C1C(C(=O)C(C)C)=C(O)C(=O)N1c1ccc(-c2ccc(C)o2)cc1 (stereo not drawn) [Compound I-586] |
| 374 nM | C/N=C1/CC(C)(C)C(=O)OC2=C1C(c1ccccc1OC)N(c1ccc(-c3ccsc3)cc1)C2=O (stereo not drawn) [Compound I-587] |
| 29 nM | CC(C)C(=O)C1=C(O)C(=O)N(c2ccc(-c3ccon3)cc2)C1c1ccccc1OCC1CC1 (stereo not drawn) [Compound I-588] |
| 32 nM | CSc1ccc(N2C(=O)C(O)=C(C(=O)C(C)C)C2c2ccccc2OCC2CC2)cc1 (stereo not drawn) [Compound I-589] |
| 28 nM | CC(C)C(=O)C1=C(O)C(=O)N(c2ccc(-c3ccon3)cc2)C1c1ccccc1OCC1CCOCC1 (stereo not drawn) [Compound I-590] |
| 31 nM | CSc1ccc(N2C(=O)C(O)=C(C(=O)C(C)C)C2c2ccccc2OCC2CCOCC2)cc1 (stereo not drawn) [Compound I-591] |
| 827 nM | Cc1nc(-c2ccc(N3C(=O)C(O)=C(C(=O)C(C)C)C3c3ccccc3CCC(N)=O)cc2)no1 (stereo not drawn) [Compound I-592] |
| 811 nM | CNC(=O)CCc1ccccc1C1C(C(=O)C(C)C)=C(O)C(=O)N1c1ccc(-c2noc(C)n2)cc1 (stereo not drawn) [Compound I-593] |
| 715 nM | Cc1nc(-c2ccc(N3C(=O)C(O)=C(C(=O)C(C)C)C3c3ccccc3CCC(=O)NC(C)C)cc2)no1 (stereo not drawn) [Compound I-594] |
| 668 nM | Cc1ccc(-c2ccc(N3C(=O)C(O)=C(C(=O)C(C)C)C3c3ccccc3N3CCCC3=O)cc2)s1 (stereo not drawn) [Compound I-597] |
| 785 nM | Cc1cc(-c2ccc(N3C(=O)C(O)=C(C(=O)C(C)C)C3c3ccccc3N3CCCC3=O)cc2)cs1 (stereo not drawn) [Compound I-598] |
